Data: ChEMBL document CHEMBL1201862, “PubChem BioAssay data set” (2004)
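Grown in 96-well plates, cells were treated for 48 hours with each compound at five concentrations. Insufficient inhibition: endpoint recorded as highest concentration tested. At the GI50, growth is halved.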 Activity calls are given as the source filed them. Cut-off read from the data, not from the text of the source: active = GI50 up to about 1.1 µM and inactive = higher.

How the values were obtained:
Assay in all cases: NCI tumour cell line growth inhibition, 48 h
DU-145 = test system: DU-145
NCI-H522 = test system: NCI-H522
PC-3 = test system: PC-3
HOP-18 = test system: HOP-18
LXFL 529 = test system: LXFL 529
RXF 631 = test system: RXF 631
SNB-78 = test system: SNB-78
XF498 = test system: XF498
M19-MEL = test system: M19-MEL

Clc1ccc(COc2ccccc2/C=N/c2c(-c3ccco3)nc3ccccn23)c(Cl)c1
GI50 (DU-145): 25.8 µM (inactive) | GI50 (NCI-H522): > 100 µM (inactive) | GI50 (PC-3): 39.8 µM (inactive)

CCOC(=O)/C=C(\C)c1ccc(C)cc1C
GI50 (HOP-18): 45 µM (inactive) | GI50 (LXFL 529): 14.6 µM (inactive) | GI50 (RXF 631): > 100 µM (inactive) | GI50 (SNB-78): 38.1 µM (inactive) | GI50 (XF498): 23.4 µM (inactive)

Cc1c2cc[n+](C)cc2c(COC2OC(CO)C(O)C2O)c2c3ccccc3n(C)c12 (centres undefined)
GI50 (HOP-18): 27.5 µM (inactive) | GI50 (M19-MEL): 65.5 µM (inactive) | GI50 (NCI-H522): 63.1 µM (inactive) | GI50 (SNB-78): 83.9 µM (inactive) | GI50 (XF498): 50.7 µM (inactive)

CCc1cc2c(oc3cc4ccccc4cc32)c(=O)[nH]1
GI50 (DU-145): > 10 µM (inactive) | GI50 (NCI-H522): > 10 µM (inactive) | GI50 (PC-3): > 10 µM (inactive)

O=C1CC2(CCC(O)(c3ccccc3)C(C(=O)c3ccccc3)C2)C(=O)c2ccccc2N1 (centres undefined)
GI50 (DU-145): > 100 µM (inactive) | GI50 (PC-3): > 100 µM (inactive)

C/C(=N\NC(=O)c1ccncc1)c1cccc(C(F)(F)F)c1
GI50 (DU-145): > 10 µM (inactive)

c1ccc2c(c1)c1ccccc1n2Cn1c2ccccc2c2ccccc21
GI50 (DU-145): > 100 µM (inactive) | GI50 (NCI-H522): > 100 µM (inactive) | GI50 (PC-3): > 100 µM (inactive)

OCc1cc2ccncc2c2c1[nH]c1ccccc12
GI50 (HOP-18): 2.52 µM (inactive) | GI50 (LXFL 529): 4.58 µM (inactive) | GI50 (SNB-78): 13.2 µM (inactive) | GI50 (XF498): 5.25 µM (inactive)

Cc1oc2nc(N(C)C)n3cnnc3c2c1C
GI50 (DU-145): > 100 µM (inactive) | GI50 (NCI-H522): > 100 µM (inactive) | GI50 (PC-3): > 100 µM (inactive)

N=C(N)c1csc([C@@H]2O[C@H](CO)[C@@H](O)[C@H]2O)n1
GI50 (HOP-18): 59.7 µM (inactive) | GI50 (LXFL 529): > 100 µM (inactive) | GI50 (M19-MEL): > 100 µM (inactive) | GI50 (RXF 631): > 100 µM (inactive) | GI50 (SNB-78): > 100 µM (inactive) | GI50 (XF498): > 100 µM (inactive)

Cc1c(-c2cc3n(n2)C(c2cccs2)C(C#N)=C(c2ccccc2)N3)c(=O)n(-c2ccccc2)n1C (centres undefined)
GI50 (HOP-18): > 100 µM (inactive) | GI50 (M19-MEL): > 100 µM (inactive) | GI50 (NCI-H522): 63.2 µM (inactive) | GI50 (SNB-78): > 100 µM (inactive) | GI50 (XF498): > 79.4 µM (inactive)

COc1ccc(C2c3cc4c(cc3OC(Nc3ccccc3)C2C)OCO4)cc1 (centres undefined)
GI50 (DU-145): 57.9 µM (inactive) | GI50 (NCI-H522): 12.1 µM (inactive) | GI50 (PC-3): 28.3 µM (inactive)

CNc1cc2c(c3ccccc13)C(CCl)CN2C(=O)c1cc2cc(OC)c(OC)c(OC)c2[nH]1 (centres undefined)
GI50 (DU-145): 0.000442 µM (active) | GI50 (NCI-H522): < 0.01 µM (active) | GI50 (PC-3): 0.00214 µM (active)

CSC1=N/C(=C\c2ccccc2)C(=O)N1CN1CCCCC1
GI50 (DU-145): > 100 µM (inactive) | GI50 (NCI-H522): 42.3 µM (inactive) | GI50 (PC-3): 55.5 µM (inactive)

O=c1[nH]c2ccc([N+](=O)[O-])cc2nc1/C(=N/Nc1ccccc1)C(O)c1ccco1 (centres undefined)
GI50 (LXFL 529): 59.8 µM (inactive) | GI50 (M19-MEL): 85.9 µM (inactive) | GI50 (NCI-H522): 6.44 µM (inactive) | GI50 (SNB-78): > 100 µM (inactive) | GI50 (XF498): > 100 µM (inactive)

CN(C)CCNC(=O)c1cccc2c1Nc1ccccc1S2
GI50 (HOP-18): 11.9 µM (inactive) | GI50 (M19-MEL): 15.6 µM (inactive) | GI50 (SNB-78): 12.2 µM (inactive) | GI50 (XF498): 12.6 µM (inactive)

CCOC(=O)NC(=O)c1cn(C2CCCCC2)c(=O)n(C)c1=O
GI50 (HOP-18): > 100 µM (inactive) | GI50 (LXFL 529): > 100 µM (inactive) | GI50 (M19-MEL): > 100 µM (inactive) | GI50 (NCI-H522): > 100 µM (inactive) | GI50 (RXF 631): > 100 µM (inactive) | GI50 (SNB-78): > 100 µM (inactive)
